In patent US20040023972A1, “Use of substituted imidazo[1,2-a]-pyridin-, -pyrimidin-and-pyrazin-3-yl-amine derivatives in the preparation of medicaments for inhibiting NOS” (Gruenenthal GmbH, priority 2000, published 2004):

molecular target: T1, NO synthase (Rattus norvegicus, UniProt P29476); assay: HTS-NOS assay (NOS assay): conversion of radioactive arginine, cation-exchanger filter plate; format: biochemical; settings: 10 μM
T1 construct: the supernatant was then removed by decantation and frozen in portions at −80° C; from tissue; host or cells: rat cerebellum, 20,000 g supernatant of homogenate
Summary of the method: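 Percent inhibition was derived by comparing remaining radioactive arginine with compound-free controls. Arginine retained on phosphate cation-exchanger filters was counted after citrulline washout, following a 5-60 min room-temperature (25 °C) reaction of labelled arginine, NADPH-containing medium and rat cerebellar homogenate supernatant.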

Question: Which “HTS-NOS assay: % inhibition (10 μM)” value does the source give for [C-]#[N+]CCCCCCNc1c(-c2cccnc2)nc2cc(C)cc(C)n12 [Example 59, [6-(5,7-Dimethyl-2-pyridin-3-yl-imidazo[1,2-a]pyridin-3-ylamino)-hexyl]-methylidyne-ammonium] here?
Answer: 57%

same assay, conditions: Table 5; concentration not given

Question: How did the “NOS assay % inhibition” value turn out when Cc1cc(C)n2c(NC3CCCC3)c(-c3ccoc3)nc2c1.Cl [Example 307, Cyclopentyl-(2-furan-3-yl-5,7-dimethyl-imidazo(1,2-a]pyridin-3-yl)-amine hydrochloride] was run?
Answer: 57%

same assay, conditions: read-out: HTS-NOS assay: % inhibition (10 μM)

Question: Which inhibition at 10 µM does the source give for COC(=O)CN(C(C)=O)c1c(-c2ccccc2C)nc2ncccn12 [Example 285, [acetyl-(2-o-tolyl-imidazo[1,2-a]pyrimidin-3-yl)-amino]-acetic acid methyl ester] here?
Answer: 51%

Question: Which inhibition at 10 µM does the source give for Cc1ccn2c(NC3CCCCC3)c(-c3ccc([N+](=O)[O-])o3)nc2c1 [Example 99, Cyclohexyl-[7-methyl-2-(5-nitro-furan-2-yl)-imidazo[1,2-a]pyridin-3-yl]-amine] here?
Answer: 66%

Question: For Cc1ccn2c(Nc3c(C)cccc3C)c(-c3cccc(Cl)c3Cl)nc2c1 [Example 47, [2-(2,3-Dichloro-phenyl)-7-methyl-imidazo[1,2-a]pyridin-3-yl]-(2,6-dimethyl-phenyl)-amine], which inhibition at 10 µM is on record?
Answer: 69%

Question: How did the inhibition at 10 µM turn out when CCCc1cccc2nc(-c3ccco3)c(N(C(C)=O)C(C)(C)CC(C)(C)C)n12 [Example 228, N-(2-furan-2-yl-5-propyl-imidazo[1,2-a]pyridin-3-yl)-N-(1,1,3,3-tetramethylbutyl)-acetamide] was run?
Answer: 53%

Question: Which inhibition at 10 µM does the source give for CC(=O)N(c1c(-c2cccs2)nc2cc(C)ccn12)C1CCCCC1 [Example 151, N-cyclohexyl-N-(7-methyl-2-thiophen-2-yl-imidazo[1,2-a]pyridin-3-yl)-acetamide] here?
Answer: 65%

Question: How did the inhibition at 10 µM turn out when CCc1ccn2c(Nc3ccc(F)c(Cl)c3)c(-c3ccc(-c4ccccc4Cl)o3)nc2c1 [Example 321, (3-Chloro-4-fluorophenyl)-{2-[5-(2-chlorophenyl)-furan-2-yl]-7-ethyl-imidazo[1,2-a]pyridin-3-yl}-amine] was run?
Answer: 50%

Question: Cc1cc(C)n2c(Nc3c(C)cccc3C)c(-c3cccc(Cl)c3Cl)nc2c1 [Example 78, [2-(2,3-Dichlorophenyl)-5,7-dimethyl-imidazo[1,2-a]pyridin-3-yl]-(2,6-dimethyl-phenyl)-amine] was tested. Which inhibition at 10 µM did it give?
Answer: 61%

Question: How did the inhibition at 10 µM turn out when Cc1ccc(-c2nc3c(C)cccn3c2NC(C)(C)CC(C)(C)C)cc1 [Example 133, (8-Methyl-2-p-tolyl-imidazo[1,2-a]pyridin-3-yl)-(1,1,3,3-tetramethyl-butyl)-amine] was run?
Answer: 52%

Question: Cc1ccn2c(NC(C)(C)CC(C)(C)C)c(-c3ccc(-c4cccc(Cl)c4)o3)nc2c1 [Example 98, {2-[5-(3-Chlorophenyl)-furan-2-yl]-7-methyl-imidazo[1,2-a]pyridin-3-yl}-(1,1,3,3-tetramethyl-butyl)-amine] was tested. Which inhibition at 10 µM did it give?
Answer: 62%

Question: CC(=O)N(c1c(C)cccc1C)c1c(-c2cccc(O)c2)nc2nc(C)cc(C)n12 [Example 272, N-(2,6-dimethyl-phenyl)-N-[2-(3-hydroxy-phenyl)-5,7-dimethyl-imidazo[1,2-a]-pyrimidin-3-yl]-acetamide] was tested. Which inhibition at 10 µM did it give?
Answer: 54%

Question: CC(=O)N(c1c(C)cccc1C)c1c(-c2sccc2Br)nc2cc(C)cc(C)n12 [Example 156, N-[2-(3-bromo-thiophen-2-yl)-5,7-dimethyl-imidazo[1,2-a]pyridin-3-yl]-N-(2,6-dimethyl-phenyl)-acetamide] was tested. Which inhibition at 10 µM did it give?
Answer: 74%

Question: For COc1ccccc1-c1nc2cc(C)ccn2c1Nc1c(C)cccc1C [Example 72, (2,6-Dimethyl-phenyl)-[2-(2-methoxy-phenyl)-7-methyl-imidazo[1,2-a]pyridin-3-yl]-amine], which inhibition at 10 µM is on record?
Answer: 53%

Question: CC(=O)N(c1c(C)cccc1C)c1c(-c2cccc(Cl)c2Cl)nc2cccc(C)n12 [Example 236, N-[2-(2,3-dichloro-phenyl)-5-methyl-imidazo[1,2-a]pyridin-3-yl]-N-(2,6-dimethyl-phenyl)-acetamide] was tested. Which inhibition at 10 µM did it give?
Answer: 58%
